Experimental findings from paper PMC3265452 (PLoS Neglected Tropical Diseases, 2012) are described below.

Structures can show the parent of a compound that is named as a salt.

AaDOP2, sequence (H6D5H2 1-476): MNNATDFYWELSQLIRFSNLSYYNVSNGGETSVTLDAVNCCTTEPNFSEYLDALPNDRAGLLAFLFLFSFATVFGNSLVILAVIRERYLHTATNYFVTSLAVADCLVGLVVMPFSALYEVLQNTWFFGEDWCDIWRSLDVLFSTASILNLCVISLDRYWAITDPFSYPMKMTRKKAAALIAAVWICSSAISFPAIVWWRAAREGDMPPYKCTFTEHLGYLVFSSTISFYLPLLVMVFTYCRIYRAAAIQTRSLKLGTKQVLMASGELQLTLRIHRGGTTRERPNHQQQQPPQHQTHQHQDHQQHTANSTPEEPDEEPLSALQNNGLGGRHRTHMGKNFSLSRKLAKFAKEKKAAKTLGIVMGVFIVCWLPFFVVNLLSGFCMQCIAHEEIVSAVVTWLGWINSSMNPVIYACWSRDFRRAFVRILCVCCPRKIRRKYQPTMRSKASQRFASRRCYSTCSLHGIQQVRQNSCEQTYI

The first experiment has as its target AaDOP2 (Aedes aegypti, UniProt H6D5H2). Put plainly: AaDOP2 antagonist screen of the LOPAC1280 library (HEK-CRELuc-Aadop2 cells, luminescence).
Settings: not given
Type of experiment: cell-based.
Turning to `CCc1cccc(N(C)C(N)=Nc2cccc3ccccc23)c1` [Compound 256, CNS-1102], the “Compound effect (percent receptor signaling in presence of test compound, relative lux units relative to the SCH23390 control)” value is reported as 107.

As to `C[N+](C)(C)CCOC(N)=O` [Compound 257, Carbachol], the “Compound effect (percent receptor signaling in presence of test compound, relative lux units relative to the SCH23390 control)” value amounted to 99.

`N[C@@H](CS(=O)O)C(=O)O` [Compound 259, L-Cysteinesulfinic Acid]: the “Compound effect (percent receptor signaling in presence of test compound, relative lux units relative to the SCH23390 control)” value was 116.

Turning to `Nc1ncnc2c1ncn2C1CCCC1` [Compound 260, 9-cyclopentyladenine], the “Compound effect (percent receptor signaling in presence of test compound, relative lux units relative to the SCH23390 control)” value amounted to 116.

`CC(=O)OCC1=C(C(=O)O)N2C(=O)[C@@H](NC(=O)Cc3cccs3)[C@H]2SC1` [Compound 261, Cephalothin sodium]: the “Compound effect (percent receptor signaling in presence of test compound, relative lux units relative to the SCH23390 control)” value is 92.

On to `CN/C(=N/CCSCc1nc[nH]c1C)NC#N` [Compound 262, Cimetidine], for which the “Compound effect (percent receptor signaling in presence of test compound, relative lux units relative to the SCH23390 control)” value is on record as 88.

Take `CN(C)CCC=C1c2ccccc2C=Cc2ccccc21` [Compound 263, Cyclobenzaprine hydrochloride]: the “Compound effect (percent receptor signaling in presence of test compound, relative lux units relative to the SCH23390 control)” value was 106.

For `CCN(CC)CCOCCOC(=O)C1(c2ccccc2)CCCC1` [Compound 264, Carbetapentane citrate], the “Compound effect (percent receptor signaling in presence of test compound, relative lux units relative to the SCH23390 control)” value is listed as 93.

In the case of `CN(C)CC[C@@H](c1ccc(Cl)cc1)c1ccccn1` [Compound 267, (+)-Chlorpheniramine maleate], the “Compound effect (percent receptor signaling in presence of test compound, relative lux units relative to the SCH23390 control)” value is given as 106.

Turning to `Cc1nnc(SCC2=C(C(=O)O)N3C(=O)[C@@H](NC(=O)Cn4cnnn4)[C@H]3SC2)s1` [Compound 268, Cefazolin sodium], the “Compound effect (percent receptor signaling in presence of test compound, relative lux units relative to the SCH23390 control)” value is reported as 96.

`Cl.Clc1ccc(Cn2c(CN3CCCC3)nc3ccccc32)cc1` [Compound 269, Clemizole hydrochloride]: the “Compound effect (percent receptor signaling in presence of test compound, relative lux units relative to the SCH23390 control)” value came to 96.

Turning to `Nc1nc(Cl)nc2c1ncn2[C@@H]1O[C@H](CO)[C@@H](O)[C@H]1O` [Compound 270, 2-Chloroadenosine], the “Compound effect (percent receptor signaling in presence of test compound, relative lux units relative to the SCH23390 control)” value amounted to 118.

Take `CC(C[N+](C)(C)C)OC(N)=O` (centres unmarked) [Compound 271, Bethanechol chloride]: the “Compound effect (percent receptor signaling in presence of test compound, relative lux units relative to the SCH23390 control)” value stood at 116.

In the case of `Cl.Cl.Clc1cccc(N2CCNCC2)c1` [Compound 273, 1-(3-Chlorophenyl)piperazine dihydrochloride], the “Compound effect (percent receptor signaling in presence of test compound, relative lux units relative to the SCH23390 control)” value came to 99.

Turning to `Cc1cc(NC(=O)Nc2ccc3c(ccn3C)c2)sn1` [Compound 274, SB 204741], the “Compound effect (percent receptor signaling in presence of test compound, relative lux units relative to the SCH23390 control)” value amounted to 95.

On to `CO/N=C(\C(=O)N[C@@H]1C(=O)N2C(C(=O)O)=C(CSc3nc(=O)c(=O)[nH]n3C)CS[C@H]12)c1csc(N)n1` [Compound 275, Ceftriaxone sodium], for which the “Compound effect (percent receptor signaling in presence of test compound, relative lux units relative to the SCH23390 control)” value turned out to be 97.

In the case of `O=C(O)c1cc[c]([Hg][Cl])cc1` [Compound 276, 4-Chloromercuribenzoic acid], the “Compound effect (percent receptor signaling in presence of test compound, relative lux units relative to the SCH23390 control)” value is on record as 96.

Take `CN1C(=O)CC[C@H]1c1cccnc1` [Compound 277, (-)-Cotinine]: the “Compound effect (percent receptor signaling in presence of test compound, relative lux units relative to the SCH23390 control)” value amounted to 96.

In the case of `C[C@H](Cc1ccc2c(c1)OC(C(=O)O)(C(=O)O)O2)NC[C@H](O)c1cccc(Cl)c1` [Compound 278, CL 316,243], the “Compound effect (percent receptor signaling in presence of test compound, relative lux units relative to the SCH23390 control)” value is on record as 101.

For the compound `Oc1cc(-c2ccccc2)nc2nc(Cl)ccc12` [Compound 279, 7-Chloro-4-hydroxy-2-phenyl-1,8-naphthyridine], the “Compound effect (percent receptor signaling in presence of test compound, relative lux units relative to the SCH23390 control)” value was 100.

Regarding `Clc1ccccc1C(c1ccccc1)(c1ccccc1)n1ccnc1` [Compound 280, Clotrimazole], the “Compound effect (percent receptor signaling in presence of test compound, relative lux units relative to the SCH23390 control)” value is given as 77.

In the case of `CN1CCC(=C2c3ccccc3C=Cc3ccccc32)CC1` [Compound 281, Cyproheptadine hydrochloride], the “Compound effect (percent receptor signaling in presence of test compound, relative lux units relative to the SCH23390 control)” value is listed as 86.

In the case of `CO[C@@]1(NC(=O)CSCC#N)C(=O)N2C(C(=O)O)=C(CSc3nnnn3C)CS[C@@H]21` [Compound 283, Cefmetazole sodium], the “Compound effect (percent receptor signaling in presence of test compound, relative lux units relative to the SCH23390 control)” value is 74.

Turning to `CCN(CC)CCCC(C)Nc1ccnc2cc(Cl)ccc12` (centres unmarked) [Compound 286, Chloroquine diphosphate], the “Compound effect (percent receptor signaling in presence of test compound, relative lux units relative to the SCH23390 control)” value is listed as 83.

With `CCOC(=O)C(C)(C)Oc1ccc(Cl)cc1` [Compound 287, Clofibrate], the “Compound effect (percent receptor signaling in presence of test compound, relative lux units relative to the SCH23390 control)” value is recorded as 74.

As for `CCCN(CCC)C(=O)Cc1c(-c2ccc(Cl)cc2)nc2c(Cl)cc(Cl)cn12` [Compound 289, CB34], the “Compound effect (percent receptor signaling in presence of test compound, relative lux units relative to the SCH23390 control)” value turned out to be 106.

With `N[C@@H](C(=O)N[C@@H]1C(=O)N2C(C(=O)O)=C(Cl)CS[C@H]12)c1ccccc1` [Compound 290, Cefaclor], the “Compound effect (percent receptor signaling in presence of test compound, relative lux units relative to the SCH23390 control)” value is 87.

Turning to `C[N+](C)(C)CC#CCOC(=O)Nc1cccc(Cl)c1.[Cl-]` [Compound 292, McN-A-343], the “Compound effect (percent receptor signaling in presence of test compound, relative lux units relative to the SCH23390 control)” value was 121.

Regarding `COc1cccc(C(=O)NCCN2CCN(c3ccc(Cl)cc3)CC2)c1` [Compound 293, N-(2-[4-(4-Chlorophenyl)piperazin-1-yl]ethyl)-3-methoxybenzamide], the “Compound effect (percent receptor signaling in presence of test compound, relative lux units relative to the SCH23390 control)” value is listed as 95.

As to `NCCSSCCN` [Compound 294, Cystamine dihydrochloride], the “Compound effect (percent receptor signaling in presence of test compound, relative lux units relative to the SCH23390 control)” value was 84.

`CNc1ccc2oc(C[C@H]3O[C@@]4(CC[C@H]3C)O[C@H]([C@H](C)C(=O)c3ccc[nH]3)[C@H](C)C[C@H]4C)nc2c1C(=O)O` [Compound 296, Calcimycin]: the “Compound effect (percent receptor signaling in presence of test compound, relative lux units relative to the SCH23390 control)” value stood at 102.

In the case of `C[C@@]12C(=O)OC(=O)[C@]1(C)[C@H]1CC[C@@H]2O1` [Compound 297, Cantharidin], the “Compound effect (percent receptor signaling in presence of test compound, relative lux units relative to the SCH23390 control)” value turned out to be 96.

The experiment is the same for the next values; noted with them: 10 µM compound, 300 nM dopamine, 2 hr; hit = compound effect <20.
For `CC1=C(C(=O)O)N2C(=O)[C@@H](NC(=O)[C@H](N)c3ccccc3)[C@H]2SC1.O` [Compound 265, Cephalexin hydrate], the “Compound effect (percent receptor signaling in presence of test compound, relative lux units relative to the SCH23390 control)” value was found to be 87%.

As for `Nc1ncnc2c1ncn2[C@@H]1O[C@H](C(=O)NC2CC2)[C@@H](O)[C@H]1O` [Compound 282, 5'-(N-Cyclopropyl)carboxamidoadenosine], the “Compound effect (percent receptor signaling in presence of test compound, relative lux units relative to the SCH23390 control)” value is reported as 82%.

As to `Cl.Nc1ccn([C@@H]2O[C@H](CO)[C@@H](O)[C@@H]2O)c(=O)n1` [Compound 288, Cytosine-1-beta-D-arabinofuranoside hydrochloride], the “Compound effect (percent receptor signaling in presence of test compound, relative lux units relative to the SCH23390 control)” value stood at 92%.
